{"source": "patent US20220364132A1", "about": "“METHOD FOR FORMING A STORAGE STABLE H[…] A LIGNO[…]” (Sekab E- Technology AB, priority 2019, published 2022)", "key": {"Lactobacillus sp.": {"tested_on": "Lactobacillus sp.", "experiment": "Storage of a sugar-rich hydrolysate inoculated with Lactobacillus sp., glucose by HPLC", "type": "cell-based", "experimental": "To test the theory, synthetic media was made containing about 90 g/l glucose, 0.5% sodium phosphate/phosphoric acid buffer (pH 5.5), 0.5 g/l diammonium phosphate, 2 g/l yeast extract and 2 g/l peptone. This solution (45 ml) was added to 50 ml serum bottles, along with a magnetic stirrer bar, and autoclaved, where after sodium sulfite at concentrations of 5, 10, 20 and 40 mM was added, while some bottles had no sulfite added, which served as control (0 mM). […] This culture was incubated at 37° C. for 36 hours and used to inoculate all the serum bottles (10% v/v). The serum bottles were then sealed with an airtight septum and a metal ring clamp and two needles were inserted through the septum to allow for sampling. The serum bottles were placed on a magnetic stirrer plate at room temperature (since storage tanks are typically kept at room temperature), with stirring at 100 rpm. Samples were taken periodically and analyzed for glucose and lactic acid using HPLC. Experiments were performed in triplicate. The experiments were continued for 11 days.\nStorage of sugar-rich hydrolysate with addition of 5-40 mM was performed in accordance with the description of example 2. In this example, the samples were prepared and handled as in example 2. In other words, the “Experiment A” samples in this example are identical to those of example 2, and these were used as a reference for the “Experiment B” and “Experiment C” samples, as well as for validating the results of example 2.\nThe “Experiment B” samples were inoculated with a Lactobacillus sp. at time 0 hours, and again after 336 hours. This was done to test the infection resistance of samples that were exposed to more than one culture of Lactobacillus sp; i.e. samples that were re-infected after two weeks.\nThe samples in “Experiment C” were stored at ambient room temperature for 2 weeks, after which Lactobacillus was added to the flasks, after 336 hours. Samples were incubated for another 7 days and a total of 21 days as for the other two experiments."}, "Lactobacillus": {"tested_on": "Lactobacillus", "experiment": "Bacterial contamination in a non-separated (non-detoxified) spruce hydrolysate, lactic acid by HPLC", "type": "cell-based", "details": "FIG. 2", "experimental": "Non-detoxified spruce hydrolysate (with added 2 g/l yeast extract; 0.5% sodium phosphate; 0.5 g/l diammonium phosphate; 2 g/l peptone and diluted with water to 30 g/l glucose) was filter sterilized and used to represent feed media. An inoculum was prepared using MRS media and the same contaminated sample as used in previous experiments, and was incubated at 37° C. overnight (16 hours). Sodium sulfite was added at concentrations of 0 mM, 5 mM, 10 mM, 20 mM and 40 mM, respectively, to 25 ml serum bottles with 22.5 ml of the feed media. After inoculation, the bottles were placed on a multiple magnetic stirring plate at room temperature, with samples taken periodically and analyzed using HPLC.\nThe hydrolysate used may represent a feed stream where no separation of the pretreatment liquid and solid component has taken place. In other words, hydrolysis and fermentation inhibitors are still present in the feed stream."}}, "data": [{"smiles": "O=S([O-])[O-].[Na+].[Na+]", "note": "[sodium sulfite]", "values": [{"measurement": "Glucose", "setting": "Lactobacillus sp.; Experiment A, 5 mM, 0 h", "result": 83.3, "unit": "g/L"}, {"measurement": "Glucose", "setting": "Lactobacillus sp.; Experiment A, 5 mM, 172 h", "result": 84.0, "unit": "g/L"}, {"measurement": "Glucose", "setting": "Lactobacillus sp.; Experiment A, 5 mM, 340 h", "result": 83.5, "unit": "g/L"}, {"measurement": "Glucose", "setting": "Lactobacillus sp.; Experiment A, 5 mM, 510 h", "result": 83.2, "unit": "g/L"}, {"measurement": "Glucose", "setting": "Lactobacillus sp.; Experiment A, 10 mM, 0 h", "result": 84.1, "unit": "g/L"}, {"measurement": "Glucose", "setting": "Lactobacillus sp.; Experiment A, 10 mM, 172 h", "result": 85.3, "unit": "g/L"}, {"measurement": "Glucose", "setting": "Lactobacillus sp.; Experiment A, 10 mM, 340 h", "result": 82.8, "unit": "g/L"}, {"measurement": "Glucose", "setting": "Lactobacillus sp.; Experiment A, 10 mM, 510 h", "result": 82.2, "unit": "g/L"}, {"measurement": "Glucose", "setting": "Lactobacillus sp.; Experiment A, 20 mM, 0 h", "result": 83.7, "unit": "g/L"}, {"measurement": "Glucose", "setting": "Lactobacillus sp.; Experiment A, 20 mM, 172 h", "result": 85.6, "unit": "g/L"}, {"measurement": "Glucose", "setting": "Lactobacillus sp.; Experiment A, 20 mM, 340 h", "result": 86.8, "unit": "g/L"}, {"measurement": "Glucose", "setting": "Lactobacillus sp.; Experiment A, 20 mM, 510 h", "result": 84.7, "unit": "g/L"}, {"measurement": "Glucose", "setting": "Lactobacillus sp.; Experiment A, 40 mM, 0 h", "result": 81.5, "unit": "g/L"}, {"measurement": "Glucose", "setting": "Lactobacillus sp.; Experiment A, 40 mM, 172 h", "result": 83.2, "unit": "g/L"}, {"measurement": "Glucose", "setting": "Lactobacillus sp.; Experiment A, 40 mM, 340 h", "result": 83.2, "unit": "g/L"}, {"measurement": "Glucose", "setting": "Lactobacillus sp.; Experiment A, 40 mM, 510 h", "result": 83.6, "unit": "g/L"}, {"measurement": "glucose consumption", "setting": "Lactobacillus sp.; Experiment A, flasks with added sodium sulfite, three weeks", "result": "no glucose consumption"}, {"measurement": "bacterial growth", "setting": "Lactobacillus sp.; Experiment B (inoculated at 0 h and 336 h), 5 mM or more, 21 days", "result": "No signs of bacterial growth"}, {"measurement": "Glucose", "setting": "Lactobacillus sp.; Experiment B, 5 mM, 0 h", "result": 82.3, "unit": "g/L"}, {"measurement": "Glucose", "setting": "Lactobacillus sp.; Experiment B, 5 mM, 172 h", "result": 82.9, "unit": "g/L"}, {"measurement": "Glucose", "setting": "Lactobacillus sp.; Experiment B, 5 mM, 340 h", "result": 82.6, "unit": "g/L"}, {"measurement": "Glucose", "setting": "Lactobacillus sp.; Experiment B, 5 mM, 510 h", "result": 78.3, "unit": "g/L"}, {"measurement": "Glucose", "setting": "Lactobacillus sp.; Experiment B, 10 mM, 0 h", "result": 82.9, "unit": "g/L"}, {"measurement": "Glucose", "setting": "Lactobacillus sp.; Experiment B, 10 mM, 172 h", "result": 84.3, "unit": "g/L"}, {"measurement": "Glucose", "setting": "Lactobacillus sp.; Experiment B, 10 mM, 340 h", "result": 81.5, "unit": "g/L"}, {"measurement": "Glucose", "setting": "Lactobacillus sp.; Experiment B, 10 mM, 510 h", "result": 80.8, "unit": "g/L"}, {"measurement": "Glucose", "setting": "Lactobacillus sp.; Experiment B, 20 mM, 0 h", "result": 82.8, "unit": "g/L"}, {"measurement": "Glucose", "setting": "Lactobacillus sp.; Experiment B, 20 mM, 172 h", "result": 74.7, "unit": "g/L"}, {"measurement": "Glucose", "setting": "Lactobacillus sp.; Experiment B, 20 mM, 340 h", "result": 86.0, "unit": "g/L"}, {"measurement": "Glucose", "setting": "Lactobacillus sp.; Experiment B, 20 mM, 510 h", "result": 83.3, "unit": "g/L"}, {"measurement": "Glucose", "setting": "Lactobacillus sp.; Experiment B, 40 mM, 0 h", "result": 80.2, "unit": "g/L"}, {"measurement": "Glucose", "setting": "Lactobacillus sp.; Experiment B, 40 mM, 172 h", "result": 82.1, "unit": "g/L"}, {"measurement": "Glucose", "setting": "Lactobacillus sp.; Experiment B, 40 mM, 340 h", "result": 82.0, "unit": "g/L"}, {"measurement": "Glucose", "setting": "Lactobacillus sp.; Experiment B, 40 mM, 510 h", "result": 82.5, "unit": "g/L"}, {"measurement": "bacterial growth", "setting": "Lactobacillus sp.; Experiment C (14 days storage at room temperature, then inoculated), concentrations above 5 mM", "result": "no growth was observed"}, {"measurement": "Glucose", "setting": "Lactobacillus sp.; Experiment C, 5 mM, 0 h", "result": 81.2, "unit": "g/L"}, {"measurement": "Glucose", "setting": "Lactobacillus sp.; Experiment C, 5 mM, 172 h", "result": 81.6, "unit": "g/L"}, {"measurement": "Glucose", "setting": "Lactobacillus sp.; Experiment C, 5 mM, 340 h", "result": 85.5, "unit": "g/L"}, {"measurement": "Glucose", "setting": "Lactobacillus sp.; Experiment C, 5 mM, 510 h", "result": 82.0, "unit": "g/L"}, {"measurement": "Glucose", "setting": "Lactobacillus sp.; Experiment C, 10 mM, 0 h", "result": 82.2, "unit": "g/L"}, {"measurement": "Glucose", "setting": "Lactobacillus sp.; Experiment C, 10 mM, 172 h", "result": 81.8, "unit": "g/L"}, {"measurement": "Glucose", "setting": "Lactobacillus sp.; Experiment C, 10 mM, 340 h", "result": 84.0, "unit": "g/L"}, {"measurement": "Glucose", "setting": "Lactobacillus sp.; Experiment C, 10 mM, 510 h", "result": 82.4, "unit": "g/L"}, {"measurement": "Glucose", "setting": "Lactobacillus sp.; Experiment C, 20 mM, 0 h", "result": 80.8, "unit": "g/L"}, {"measurement": "Glucose", "setting": "Lactobacillus sp.; Experiment C, 20 mM, 172 h", "result": 80.3, "unit": "g/L"}, {"measurement": "Glucose", "setting": "Lactobacillus sp.; Experiment C, 20 mM, 340 h", "result": 84.5, "unit": "g/L"}, {"measurement": "Glucose", "setting": "Lactobacillus sp.; Experiment C, 20 mM, 510 h", "result": 83.3, "unit": "g/L"}, {"measurement": "Glucose", "setting": "Lactobacillus sp.; Experiment C, 40 mM, 0 h", "result": 82.0, "unit": "g/L"}, {"measurement": "Glucose", "setting": "Lactobacillus sp.; Experiment C, 40 mM, 172 h", "result": 81.6, "unit": "g/L"}, {"measurement": "Glucose", "setting": "Lactobacillus sp.; Experiment C, 40 mM, 340 h", "result": 86.2, "unit": "g/L"}, {"measurement": "Glucose", "setting": "Lactobacillus sp.; Experiment C, 40 mM, 510 h", "result": 82.0, "unit": "g/L"}, {"measurement": "antimicrobial effect on the hydrolysate", "setting": "Lactobacillus; 5 to 40 mM sodium sulfite, room temperature", "result": "no antimicrobial effect"}, {"measurement": "bacterial growth", "setting": "Lactobacillus; sodium sulfite added (5 to 40 mM)", "result": "increased bacterial growth"}]}]}
